{"source": "patent EP0551200A1", "about": "“Protein phosphatase inhibitors for use in therapy” (priority 1992, dated 1993)", "key": {"[1]": {"tested_on": "Egr-1 protein", "assay_type": "cell-based", "settings": "2 h treatment, data not shown", "protocol": "Quiescent human fibroblasts were stimulated with MEM containing 0.5 µM okadaic acid in the presence or absence of cycloheximide (10 µg/ml) for the times indicated in Fig. 11. […] Treatment of cells with cycloheximide enhanced the induction of Egr-1 mRNA by okadaic acid at 1.5 and 3 h (Fig. 11). Similarly puromycin, like cycloheximide, also \"superinduces\" the induction of the Egr-1 mRNA by okadaic acid (data not shown). […] However, in view that protein phosphatase 1 (PP1) and protein phosphatase 2A (PP2A) regulate enzymes associated with cellular protein synthesis (Cohen, Annu. Rev. Biochem. 58, 453-508, 1989) the effect of okadaic acid on protein synthesis in mouse and human fibroblasts was also measured. […] By then the Egr-1 mRNA message was already induced. A corollary to this is a comparison of the amount of ³⁵S-methionine labelled Egr-1 protein immunoprecipitated by R5232 antibodies from protein phosphatase inhibitor-treated and control cells. […] Thus, the induction of the Egr-1 gene by phosphatase inhibitors is unlikely to be mediated by their late inhibitory effects on cellular protein synthesis."}, "[2]": {"tested_on": "Egr-1 mRNA", "assay": "Nuclear run-on analysis of transcription in Balb/c 3T3 cells", "assay_type": "cell-based, mouse", "settings": "0.5 µM", "protocol": "Nuclei were isolated from quiescent (0 h) and okadaic acid-treated (0.5 µM) Balb/c 3T3 cells under conditions described in the \"Experimental Procedures\" of Example 2. Nylon matrix containing the indicated plasmids were hybridized with the in vitro transcribed RNA and then autoradiographed. Control cells were also treated with DMEM containing […] of DMSO and RNA from these cells were also transcribed and hybridized to the various plasmids indicated.\nCell Cultures and Reagents. Human diploid foreskin fibroblasts were a gift from Dr J Vilcek (New York University, New York). The cells were grown in MEM supplemented with 10% fetal bovine serum (Hyclone, Logan, UT, US), Mouse Balb/c 3T3 cells were purchased from the American Type Culture Collection and grown in Dulbecco's MEM (DMEM) supplemented with 10% fetal bovine serum. Okadaic acid, calyculin A, H7, and HA1004 were purchased from Biomol Research Laboratories (Plymouth Meeting, PA, US). TPA, puromycin and dBt-cAMP were purchased from Sigma (St Louis, MO, US) 1 mM stock solutions of okadaic acid or calyculin A were solubilized in DMSO. [³²P]orthophosphate and other radioactive chemicals were purchased from Du Pont-New England Nuclear (Boston, MA). Preparation of RNA and Northern Analysis. Balb/c 3T3 cells were grown to near confluency in DMEM supplemented with 10% fetal calf serum. The cells were then maintained in DMEM without serum for 48 h followed by treatment with the indicated agonists for the times indicated. Similarly human fibroblasts were maintained in MEM supplemented with 10% fetal bovine serum. Nearly confluent human fibroblasts were maintained for 2 days in MEM supplemented with 0.25% fetal bovine serum before treatment with agonists. The cells were harvested and total cytoplasmic RNA was isolated and subjected to Northern analysis as previously described (Chomczynski et al, Anal. Biochem. 162, 156-159, 1987). The blots were autoradiographed and quantitated with the aid of the Visage 2000 Image System (BioImage Products, Ann Arbor, MI, US). Nuclear Run-on Analysis of Transcription. […]"}, "[3]": {"tested_on": "Egr-1 protein", "assay": "Western blot analysis of Egr-1 protein from primary human fibroblasts", "assay_type": "cell-based", "protocol": "Quiescent primary human fibroblasts were incubated with MEM containing 0.5 µM of okadaic acid for the times indicated. As a positive control, the quiescent cells were also incubated with medium containing 20% fetal calf serum for 2 h. Total cellular proteins were extracted and subjected to Western blot analysis as described previously (Cao et al, Mol. Cell. Biol. 10, 1931-1939, 1989). The blot was reacted with anti-Egr-1 polyclonal antibody (R5232).\nCellular proteins were extracted from quiescient, okadaic acid-treated and serum-treated human fibroblasts and subjected to Western blot analysis using rabbit polyclonal Egr-1 antibodies. In the control quiescent cells, traces of Egr-1 protein with molecular masses of 80 kDa and 100 kDa were detected. An approximately 6-fold increase of the 80 kDa protein was measured in the cells 2 h after serum stimulation. An approximately 2-fold increase in the 80 kDa Egr-1 protein was detected in the cells after 1 h okadaic acid treatment. However, at 2.5 h after okadaic acid treatment the Egr-1 protein was mostly detected as the 100 kDa moiety rather than as the 80 kDa protein (Fig. 13). […] By 6 h after okadaic acid treatment the cellular level of the 100 kDa Egr-1 protein was reduced (Fig. 13). […]"}}}
{"smiles": "C=C1[C@@H](O)[C@@H]2O[C@]3(CC[C@H](/C=C/[C@@H](C)[C@@H]4CC(C)=C[C@@]5(O[C@H](C[C@@](C)(O)C(=O)O)CC[C@H]5O)O4)O3)CC[C@H]2O[C@@H]1[C@@H](O)C[C@H](C)[C@H]1O[C@@]2(CCCCO2)CC[C@H]1C", "note": "[okadaic acid]", "values": [{"measurement": "amount of 35S-methionine labeled Egr-1 protein relative to control cells", "setting": "[1]", "result": "4 to 5", "unit": "fold"}, {"measurement": "time at which a trace of newly transcribed Egr-1 mRNA was detectable", "setting": "[2]", "result": 0.5, "unit": "h"}, {"measurement": "time by which significant amounts of Egr-1 mRNA were transcribed", "setting": "[2]", "result": "≤ 1", "unit": "h"}, {"measurement": "time of maximum transcription of Egr-1 mRNA", "setting": "[2]", "result": 4, "unit": "h"}, {"measurement": "level of the 100 kDa Egr-1 protein relative to the 80 kDa Egr-1 protein of control cells", "setting": "[3]; 0.5 µM, 2.5 h", "result": "3 to 4", "unit": "fold"}, {"measurement": "fold induction at 0.5 µM", "setting": "[3]; Homo sapiens, Fibroblast, 1 h, read-out: increase in the 80 kDa Egr-1 protein", "result": "~2"}]}
